For this test, the system named is CAL51 cell proliferation. As to the kind of experiment: Cell Titer Glo Proliferation Assay (CAL51). The class given is cell-based, human. The settings on record: Homo sapiens, CAL-51; CAL51 cell proliferation, 72 h, Cell Titer Glo luminescence; read-out: Act. Level. Here is the method:
Cell Titer Glo Proliferation Assay. Triple negative breast cancer cell line CAL51 was purchased from DSMZ. […] Allcell lines were maintained in growth media consisting of 90% high glucose Dulbecco's Modified Eagle Medium or RPMI1640 (Invitrogen), 10% fetal bovine serum (Hyclone), and 2 mM L-glutamine (Invitrogen). […] After overnight culture, compound stock (30 mM) was diluted serially in DMSO, further diluted in growth media, and was added to each well as a 10× concentrated solution in a volume of 11 μL, mixed, and allowed to incubate with cells. The compound vehicle (DMSO) was maintained at a final concentration of 0.2% in all wells. After 72 h, 100 μL of Cell Titer Glo solution (Promega) was added to each well of the 96-well plate. The plate was placed on a shaker for 2 minutes. After 10 minutes incubation, the luminescence signal was detected with Envision microplate reader (Perkin Elmer).
On the technique in general: Cellular ATP, detected with luciferase, serves as a proxy for viable cell number.

As to `COc1cc(C(=O)N(C)C)ccc1Nc1nc(OC2CCCC2)c2c(-c3ccc(O)cc3)c[nH]c2n1` [Example 31, 4-(4-(cyclopentyloxy)-5-(4-hydroxyphenyl)-7H-pyrrolo[2,3-d]pyrimidin-2-ylamino)-3-methoxy-N,N-dimethylbenzamide], the IC50 is below 100 nM.

On to `CNC(=O)c1ccc(Nc2nc(OC3CCCC3)c3c(-c4ccc5nonc5c4)c[nH]c3n2)c(OC)c1` [Example 260, 4-(5-(benzo[c][1,2,5]oxadiazol-5-yl)-4-(cyclopentyloxy)-7H-pyrrolo[2,3-d]pyrimidin-2-ylamino)-3-methoxy-N-methylbenzamide], for which the IC50 lay in the range of 1000 to 10000 nM.

In the case of `COc1cc(C(=O)NC2CCCOC2)ccc1Nc1nc(OC2CCCC2)c2c(-c3ccc4nc(C)oc4c3)c[nH]c2n1` (stereo not drawn) [Example 273, 4-(4-(cyclopentyloxy)-5-(2-methylbenzo[d]oxazol-6-yl)-7H-pyrrolo[2,3-d]pyrimidin-2-yl-amino)-3-methoxy-N-(tetrahydro-2H-pyran-3-yl)benzamide], the IC50 was below 100 nM.

For `CNC(=O)c1ccc(Nc2nc(OC3CCCC3)c3c(-c4cc[nH]n4)c[nH]c3n2)c(OC)c1` [Example 80, 4-(4-(cyclopentyloxy)-5-(1H-pyrazol-3-yl)-7H-pyrrolo[2,3-d]pyrimidin-2-ylamino)-3-methoxy-N-methylbenzamide], the IC50 was below 100 nM.

Turning to `CNC(=O)c1ccc(Nc2nc(O[C@H]3CCOC3)c3c(-c4ccc5nc(C)oc5c4)c[nH]c3n2)c(C)c1` [Example 133, (S)-N,3-dimethyl-4-(5-(2-methylbenzo[d]oxazol-6-yl)-4-(tetrahydrofuran-3-yloxy)-7H-pyrrolo[2,3-d]pyrimidin-2-ylamino)benzamide], the IC50 is below 100 nM.

Turning to `COc1cc(C(=O)NC2COC2)ccc1Nc1nc(O[C@H]2CC[C@@](C)(O)CC2)c2c(-c3ccc4nc(C)oc4c3)c[nH]c2n1` [Example 314, 4-(4-((1s,4s)-4-hydroxy-4-methylcyclohexyloxy)-5-(2-methylbenzo[d]oxazol-6-yl)-7H-pyrrolo[2,3-d]pyrimidin-2-ylamino)-3-methoxy-N-(oxetan-3-yl)benzamide], the IC50 is below 100 nM.

Take `Cc1nc2ccc(-c3c[nH]c4nc(Nc5ccc(C(=O)N6CCNCC6)cc5C)nc(NC5CCOCC5)c34)cc2o1` [Example 74, (3-methyl-4-(5-(2-methylbenzo[d]oxazol-6-yl)-4-(tetrahydro-2H-pyran-4-ylamino)-7H-pyrrolo [2,3-d]pyrimidin-2-ylamino)phenyl) (piperazin-1-yl)methanone]: the IC50 lay within 100 to 400 nM.

For the compound `COc1cc(-n2cccn2)ccc1Nc1nc(OC2CCCC2)c2c(-c3ccc4nc(C)oc4c3)c[nH]c2n1` [Example 228, 4-(cyclopentyloxy)-N-(2-methoxy-4-(1H-pyrazol-1-yl)phenyl)-5-(2-methylbenzo[d]oxazol-6-yl)-7H-pyrrolo[2,3-d]pyrimidin-2-amine], the IC50 is 100 to 400 nM.

Regarding `COc1cc(C(=O)N(C)CC(N)=O)ccc1Nc1nc(OC2CCCC2)c2c(-c3ccc4nc(C)oc4c3)c[nH]c2n1` [Example 268, N-(2-amino-2-oxoethyl)-4-(4-(cyclopentyloxy)-5-(2-methylbenzo[d]oxazol-6-yl)-7H-pyrrolo[2,3-d]pyrimidin-2-ylamino)-3-methoxy-N-methylbenzamide], the IC50 was below 100 nM.

Turning to `CNC(=O)c1ccc(Nc2nc(O[C@H]3CCOC3)c3c(-c4cnn(C)c4)c[nH]c3n2)c(C)c1` [Example 165, (S)-N,3-dimethyl-4-(5-(1-methyl-1H-pyrazol-4-yl)-4-(tetrahydrofuran-3-yloxy)-7H-pyrrolo[2,3-d]pyrimidin-2-ylamino)benzamide], the IC50 was below 100 nM.

Turning to `CNC(=O)c1ccc(OC)c(Nc2nc(OC3CCOCC3)c3c(-c4ccc5nc(C)oc5c4)c[nH]c3n2)c1` [Example 181, 4-methoxy-N-methyl-3-(5-(2-methylbenzo[d]oxazol-6-yl)-4-(tetrahydro-2H-pyran-4-yloxy)-7H-pyrrolo[2,3-d]pyrimidin-2-ylamino)benzamide], the IC50 lay within 100 to 400 nM.

Regarding `CNC(=O)c1ccc(-c2c[nH]c3nc(Nc4ccc(C(=O)NC)cc4OC)nc(OC(C)C)c23)cc1` [Example 188, 4-(4-isopropoxy-5-(4-(methylcarbamoyl)phenyl)-7H-pyrrolo[2,3-d]pyrimidin-2-ylamino)-3-methoxy-N-methylbenzamide], the IC50 was below 100 nM.

On to `CNC(=O)c1ccc(Nc2nc(OC3CCOCC3)c3c(-c4cccc([C@H](C)O)c4)c[nH]c3n2)c(OC)c1` [Example 175, (S)-4-(5-(3-(1-hydroxyethyl)phenyl)-4-(tetrahydro-2H-pyran-4-yloxy)-7H-pyrrolo[2,3-d]pyrimidin-2-ylamino)-3-methoxy-N-methylbenzamide], for which the IC50 was in the range of 100 to 400 nM.

On to `COc1cc(C(=O)N2CCOCC2)ccc1Nc1nc(OC2CCCC2)c2c(-c3ccc4nc(C)oc4c3)c[nH]c2n1` [Example 96, (4-(4-(cyclopentyloxy)-5-(2-methylbenzo[d]oxazol-6-yl)-7H-pyrrolo[2,3-d]pyrimidin-2-ylamino)-3-methoxyphenyl)(morpholino) methanone], for which the IC50 was in the range of 400 to 1000 nM.

As for `CNC(=O)c1ccc(Nc2nc(OC3CCCC3)c3c(-c4ccc(N)cc4)c[nH]c3n2)c(OC)c1` [Example 37, 4-(5-(4-aminophenyl)-4-(cyclopentyloxy)-7H-pyrrolo[2,3-d]pyrimidin-2-ylamino)-3-methoxy-N-methylbenzamide], the IC50 was below 100 nM.

Turning to `COc1cc(C(=O)N(C)CCCO)ccc1Nc1nc(OC2CCCC2)c2c(-c3ccc4nc(C)oc4c3)c[nH]c2n1` [Example 283], the IC50 is below 100 nM.

For the compound `CNC(=O)c1ccc(Nc2nc(OC3CCOCC3)c3c(-c4cn[nH]c4)c[nH]c3n2)c(OC)c1` [Example 122, 4-(5-(1H-pyrazol-4-yl)-4-(tetrahydro-2H-pyran-4-yloxy)-7H-pyrrolo[2,3-d]pyrimidin-2-ylamino)-3-methoxy-N-methylbenzamide], the IC50 was below 100 nM.

For `CNC(=O)c1ccc(Nc2nc(OC(C)(C)C)c3c(-c4ccc5nc(C)oc5c4)c[nH]c3n2)c(OC)c1` [Example 246, 4-(4-tert-butoxy-5-(2-methylbenzo[d]oxazol-6-yl)-7H-pyrrolo[2,3-d]pyrimidin-2-ylamino)-3-methoxy-N-methylbenzamide], the IC50 is below 100 nM.

`CNC(=O)c1ccc(Nc2nc(OC3CCOCC3)c3c(-c4ccnc(NC)c4)c[nH]c3n2)c(OC)c1` [Example 155, 3-methoxy-N-methyl-4-(5-(2-(methylamino)pyridin-4-yl)-4-(tetrahydro-2H-pyran-4-yloxy)-7H-pyrrolo[2,3-d]pyrimidin-2-ylamino)benzamide]: the IC50 is below 100 nM.

With `COc1cc(C(=O)NCCO)ccc1Nc1nc(OC2CC2)c2c(-c3cnn(C)c3)c[nH]c2n1` [Example 217, 4-(4-cyclopropoxy-5-(1-methyl-1H-pyrazol-4-yl)-7H-pyrrolo[2,3-d]pyrimidin-2-ylamino)-N-(2-hydroxyethyl)-3-methoxybenzamide], the IC50 was 100 to 400 nM.

With `COc1cc(C(=O)N(C)C2COC2)ccc1Nc1nc(OC2CCCC2)c2c(-c3ccc4nc(C)oc4c3)c[nH]c2n1` [Example 272, 4-(4-(cyclopentyloxy)-5-(2-methylbenzo[d]oxazol-6-yl)-7H-pyrrolo[2,3-d]pyrimidin-2-ylamino)-3-methoxy-N-methyl-N-(oxetan-3-yl)benzamide], the IC50 was below 100 nM.

The values are drawn from patent publication US9346812B2, “Substituted pyrrolopyrimidine compounds, compositions thereof, and methods of treatment therewith” (Signal Pharmaceutical LLC, priority 2013, dated 2016).
